Entries after “also recorded” stand apart in the source; their conditions may differ.
Assays:
[1] = tested on: patients enduring stressful life situations; assay: Example 5: inducing resilience in patients enduring stressful life situations; assay type: in vivo, human; conditions: 900 mg oral (300 mg TID) daily; example in present tense
[2] = tested on: patients diagnosed with PTSD; assay: Example 4: treatment of patients with PTSD; assay type: in vivo, human; conditions: 900 mg oral (300 mg TID) daily; example in present tense
[3] = tested on: patients with major depressive disorder (MDD) or persistent depressive disorder (PDD); assay: Multi-center, double-blind, randomized, placebo-controlled clinical trial of ezogabine (clinical rating scales); assay type: in vivo, human
Text: The well-known Montgomery-Asberg Depression Rating Scale (MADRS) is employed to capture change in overall depressive severity. […] The primary clinical outcome is a MADRS subscale composed of items 7 and 8 from the MADRS that capture symptoms of reduced motivation, low energy, and loss of interest or pleasure, which are termed “MADRS”.
The Temporal Experience of Pleasure Scale (TEPS) is designed to capture the separate reward processing components of anticipation and consumption, mapping the PVS constructs of AM/reward expectancy and IRRA/SSRA, respectively.
The TEPS is an 18-item self-report measurement of anticipatory (10 items) and consummatory (eight items) components of anhedonia which consists of a series of statements that must be rated according to how accurate they are for the individual. The scale differentiates the role of anticipatory pleasure (‘wanting’) from consummatory pleasure (‘liking’). The TEPS-Anticipatory sub-scale is a validated measure of anticipation of reward (higher scores are better); the TEPS-Consummatory sub-scale is a validated measure of response to receipt of reward.
Two additional instruments include the Specific Loss of Interest and Pleasure Scale (SLIPS) and the Anticipatory and Consummatory Interpersonal Pleasure Scale (ACIPS) which offer additional unique features, including specificity for anhedonia in the context of depression, and a focus on social aspects of reward.
The Quick Inventory of Depressive Symptomatology-Self-Report (QIDS-SR) is a validated self-report of depression.
The CGI-S/I will provide an overall clinician-determined summary measure that takes into account all available information, including knowledge of the subject's history, psychosocial circumstances, symptoms, behavior, and the impact of the symptoms on the subject's ability to function. The CGI evaluates the severity of psychopathology from 1 to 7. The CGI-S is a widely administered clinician rated global measure of overall illness severity. Subjects are rated on a 1-7 scale where 1 corresponds to “Normal, Not at All Ill”, 2 is “Borderline Mentally Ill”, the anchor for 3 is “Mildly Ill”, the anchor for 4 is “Moderately Ill”, 5 is “Markedly Ill”, 6 is “Severely Ill”, and 7 is “Among the Most Extremely Ill Patients”. It will be administered at all subject visits. The CGI-I is a widely administered clinician rated global measure of the degree of improvement from the initial assessment in subject overall illness severity. […] It will be administered at all subject visits.
The study procedures were conducted at the Icahn School of Medicine at Mount Sinai in New York City and at Baylor College of Medicine in Houston, Tex. Participants were between the ages of 18 and 65 and meet DSM-V criteria for major depressive disorder (MDD) or persistent depressive disorder (PDD, a chronic form of depression), as assessed by a trained rater using the Structured Clinical Interview for Diagnostic and Statistical Manual of Mental Disorders-Fifth Edition Text Revision (DSM-V-TR) Axis I Disorders, Patient Edition (SCID-I/P).
Following screening (Day −28 to Day −2), screening data was reviewed by the site PI to determine subject eligibility. Subjects who met all inclusion criteria and none of the exclusion criteria entered into the study. All eligible participants returned to the clinics to complete the baseline assessments and undergo randomization (Day 0, Baseline). Baseline assessments included clinical evaluations, the PRT and fMRI scanning (details below). […] Randomization was balanced by using randomly permuted blocks and stratified by center. A computer-generated randomization scheme developed by the coordinating site assigned a unique treatment code, which dictated the treatment assignment and matching study drug kit for each subject. The randomization list was provided by the research pharmacist at the coordinating site to the research pharmacist at the collaboration site.

[4] = tested on: patients with treatment resistant depression (TRD); assay: Sub-group analysis of the clinical trial: patients with treatment resistant depression (TRD), MADRS
Text: Treatment resistance is defined as at least one probable treatment failure as captured and by the Antidepressant Treatment form (AHTF).

[5] = tested on: ventral striatum (VS); assay: fMRI during the Incentive Flanker Task: activation to reward anticipation; assay type: in vivo, human; conditions: baseline to primary outcome visit; ezogabine compared to placebo; n=40
Text: Following screening (Day −28 to Day −2), screening data was reviewed by the site PI to determine subject eligibility. Subjects who met all inclusion criteria and none of the exclusion criteria entered into the study. All eligible participants returned to the clinics to complete the baseline assessments and undergo randomization (Day 0, Baseline). Baseline assessments included clinical evaluations, the PRT and fMRI scanning (details below). […] Randomization was balanced by using randomly permuted blocks and stratified by center. […]
At each visit, participants completed self-report and clinician-administered rating scales performed by trained raters, and met with a study psychiatrist who assessed suicidal thinking or behavior, adverse events (AE), and changes in concomitant medications. […]
The primary outcome measure of the study was a change in activation within the bilateral ventral striatum (VS, FIG. 1) from baseline (Study Visit 0) to the primary outcome visit (Study Visit 5) as measured by functional magnetic resonance imaging (fMRI) during the Incentive Flanker Task (IFT), a variant of the monetary incentive delay task (MID) as described above. […] Additional secondary outcome included change in behavioral symptoms of anhedonia through a computer-based task, the Probabilistic Reward Task (PRT), and global illness improvement and severity evaluated through changes in CGI-I and CGI-S scores. […]

[6] = tested on: patients diagnosed with an anxiety disorder; assay: Example 3: treatment of patients with an anxiety disorder; conditions: 900 mg oral (300 mg TID); example in present tense
[7] = biological target: P-glycoprotein (Homo sapiens, UniProt P08183); conditions: cited from earlier work
[8] = human, in vivo; cited from earlier work

Sequence of P-glycoprotein (P08183 whole entry): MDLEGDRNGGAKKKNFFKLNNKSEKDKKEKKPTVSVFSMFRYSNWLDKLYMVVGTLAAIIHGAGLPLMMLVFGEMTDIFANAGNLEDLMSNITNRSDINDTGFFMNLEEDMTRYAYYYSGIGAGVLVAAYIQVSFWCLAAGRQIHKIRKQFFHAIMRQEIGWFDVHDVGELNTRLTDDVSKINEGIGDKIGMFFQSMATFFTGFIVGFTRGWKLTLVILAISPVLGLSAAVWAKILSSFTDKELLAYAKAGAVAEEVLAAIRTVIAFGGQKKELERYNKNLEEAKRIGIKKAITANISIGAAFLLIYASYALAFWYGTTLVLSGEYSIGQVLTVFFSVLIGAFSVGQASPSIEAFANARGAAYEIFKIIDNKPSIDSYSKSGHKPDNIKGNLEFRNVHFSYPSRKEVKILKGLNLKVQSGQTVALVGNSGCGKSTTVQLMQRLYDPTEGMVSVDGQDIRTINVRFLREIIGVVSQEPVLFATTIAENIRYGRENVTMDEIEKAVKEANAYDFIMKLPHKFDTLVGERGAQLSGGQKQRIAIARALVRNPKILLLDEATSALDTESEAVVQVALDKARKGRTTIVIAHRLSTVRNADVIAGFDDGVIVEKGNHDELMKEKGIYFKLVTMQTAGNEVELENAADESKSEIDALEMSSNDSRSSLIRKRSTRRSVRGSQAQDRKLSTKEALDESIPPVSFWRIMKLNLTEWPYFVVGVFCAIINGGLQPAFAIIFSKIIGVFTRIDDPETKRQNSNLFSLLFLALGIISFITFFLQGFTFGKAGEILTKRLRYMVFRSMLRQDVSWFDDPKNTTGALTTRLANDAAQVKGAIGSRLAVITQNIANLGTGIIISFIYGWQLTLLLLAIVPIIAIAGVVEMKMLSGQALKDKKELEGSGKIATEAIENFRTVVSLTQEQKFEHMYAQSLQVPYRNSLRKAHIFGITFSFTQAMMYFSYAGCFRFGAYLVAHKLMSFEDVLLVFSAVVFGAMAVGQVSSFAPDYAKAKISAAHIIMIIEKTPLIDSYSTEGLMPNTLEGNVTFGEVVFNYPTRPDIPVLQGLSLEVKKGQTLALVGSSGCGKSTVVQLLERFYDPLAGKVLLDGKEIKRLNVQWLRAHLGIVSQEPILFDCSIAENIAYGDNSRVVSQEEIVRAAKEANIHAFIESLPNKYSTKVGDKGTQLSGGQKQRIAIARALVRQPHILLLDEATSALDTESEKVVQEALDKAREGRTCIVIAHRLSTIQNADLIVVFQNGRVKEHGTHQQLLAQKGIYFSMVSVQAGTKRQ

Compound: CCOC(=O)Nc1ccc(NCc2ccc(F)cc2)cc1N [ezogabine, N-[2-amino-4-(4-fluorobenzylamino)-phenyl] carbamic acid ethyl ester]
- resilience: managing emotional health and wellness [1]: better at managing their emotional health and wellness
- PTSD symptoms [2]: alleviated after treatment
- SHAPS scores, Estimate (ezogabine compared to placebo) ([3]; anhedonia, n=45, p<0.0001): −1.55
- mean change from baseline in MADRS score ([3]; at the primary outcome visit, ezogabine up to 900 mg/day oral): 5.9±8.8 points
- SHAPS, Cohen's d ([3]; ezogabine compared to placebo, medium effect size): 0.6
- MADRS, Cohen's d ([3]; ezogabine compared to placebo, n=45): 0.7
- TEPS anticipatory subscale (TEPS-ant), Estimate ([3]; ezogabine compared to placebo, n=45, p=0.0008): 1.33
- ACIPS, Estimate ([3]; ezogabine compared to placebo, p=0.0002): 2.77
- SLIPS, Estimate ([3]; ezogabine compared to placebo, p=0.0009): −1.78
- TEPS consummatory subscale (TEPS-con), Estimate ([3]; ezogabine compared to placebo, p=0.05): 0.64
- effect on anhedonia symptoms ([3]; human patients with depression and anhedonia, 300 mg TID oral, 5 weeks, SHAPS): successfully treated patients suffering from anhedonia; also recorded: reduction in anhedonia and related symptoms
- difference in MADRS change (V5 vs V0): TRD versus non-TRD patients ([4]; TRD ezogabine, non-TRD ezogabine and placebo groups, p=0.015): even larger benefit of treatment compared to placebo in the TRD patients than in the non-TRD patients
- onset of improvement in MADRS scores, ezogabine TRD group ([4]; TRD patients, change over time): significant improvement after a single treatment
- effect of treatment on MADRS in patients with TRD ([4]; TRD patients, ezogabine 900 mg/day vs placebo, ANOVA p=0.024): greatest improvement in their MADRS scores; also recorded: significant effect of treatment; also recorded: beneficial effects compared to placebo
- change in activation to reward anticipation within ventral striatum (fMRI) [5]: increased response to reward in the brain
- symptoms of anxiety [6]: rapid and sustained alleviation of their symptoms of anxiety
- P-glycoprotein active transport [7]: not subject to P-glycoprotein active transport
- median time to maximum plasma concentration (Tmax) [8]: 30 to 120 min
- metabolism [8]: extensively metabolized primarily via glucuronidation and acetylation
